The text below walks through data of PubChem BioAssay (NCI).

Test systems include CCRF-CEM leukemia; HOP-92 NSCLC; NCI-H460 lung; NCI/ADR-RES ovarian; OVCAR-8 ovarian; PC-3 prostate; RXF 393 renal; SF-268 CNS; SK-MEL-5 melanoma; SR leukemia.
What all share (assay): NCI tumour cell line growth inhibition, 48 h

Structures are written as SMILES. “And” between values parts separate entries of the source, which are not always exact repeats. Equal entries are not always repeated.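 These data come from cells grown in 96-well plates and exposed to compound for 48 hours at five concentrations. Here, GI50 denotes the concentration required for 50% inhibition of growth. TGI: total growth inhibition.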

Consider `CS(=O)(=O)Nc1ccc(Nc2c3ccccc3nc3cc(Cl)ccc23)cc1`, for which the GI50 with CCRF-CEM leukemia was 0.317 µM; with HOP-92 NSCLC, 0.334 µM; in the experiment on NCI-H460 lung it was 0.0962 µM; with NCI/ADR-RES ovarian, 3.93 µM; with OVCAR-8 ovarian, 1.76 µM; with PC-3 prostate, 2.47 µM. The GI50 was 1.77 µM with RXF 393 renal, 2.57 µM with SF-268 CNS, 1.13 µM in the experiment on SK-MEL-5 melanoma and 0.177 µM in the experiment with SR leukemia. Moreover, the TGI came to 33.7 µM with CCRF-CEM leukemia; 4.7 µM in the experiment on HOP-92 NSCLC; 11 µM in the experiment on NCI-H460 lung; 37.5 µM in the experiment with NCI/ADR-RES ovarian; 15.6 µM in the experiment with OVCAR-8 ovarian; 19.4 µM in the experiment with PC-3 prostate. Besides, the TGI stood at 10.6 µM with RXF 393 renal, 19.6 µM in the experiment on SF-268 CNS, 2.62 µM in the experiment with SK-MEL-5 melanoma and 16 µM in the experiment on SR leukemia.

On to `Cc1c(N)nc(C2CC(=O)N2CC(N)C(N)=O)nc1C(=O)NC(C(=O)NC(C)C(O)C(C)C(=O)NC(C(=O)NCCc1nc(-c2nc(C(=O)NCCNCC(C)O)cs2)cs1)C(C)O)C(OC1OC(CO)C(O)C(O)C1OC1OC(CO)C(O)C(OC(N)=O)C1O)c1cnc[nH]1` (stereo not given), for which the GI50 was 12.6 µM in the experiment with CCRF-CEM leukemia; 0.208 µM in the experiment with NCI-H460 lung; 6.97 µM with OVCAR-8 ovarian; 1.69 µM in the experiment with SF-268 CNS; 0.644 µM in the experiment on SK-MEL-5 melanoma; 0.005 µM in the experiment on SR leukemia. Moreover, the TGI with CCRF-CEM leukemia was 50 µM and > 33 µM; with HOP-92 NSCLC, 9.68 µM; in the experiment on NCI-H460 lung, 50 µM and 13.6 µM; in the experiment on NCI/ADR-RES ovarian, 50 µM; in the experiment on OVCAR-8 ovarian, 50 µM and > 100 µM; in the experiment with PC-3 prostate, above 50 µM. Further, the TGI with RXF 393 renal was 0.425 µM; in the experiment with SF-268 CNS it was 32.6 µM and > 23.2 µM; with SK-MEL-5 melanoma, 11.6 µM and 17.9 µM; with SR leukemia it was 50 µM.

Regarding `OCCn1c(-c2ccncc2)c(-c2ccc(F)cc2)c2ncccc21`, the GI50 is above 25 µM in the experiment with CCRF-CEM leukemia; 9.5 µM in the experiment with HOP-92 NSCLC; above 25 µM in the experiment on NCI-H460 lung; above 25 µM in the experiment with NCI/ADR-RES ovarian; above 25 µM in the experiment with OVCAR-8 ovarian; above 25 µM in the experiment on PC-3 prostate. For the same compound, the GI50 in the experiment on RXF 393 renal, in the experiment with SF-268 CNS, with SK-MEL-5 melanoma and with SR leukemia was above 25 µM throughout. Further, the TGI in the experiment with CCRF-CEM leukemia, in the experiment with HOP-92 NSCLC, in the experiment with NCI-H460 lung, in the experiment with NCI/ADR-RES ovarian, in the experiment on OVCAR-8 ovarian and in the experiment with PC-3 prostate was above 25 µM each time. For the same compound, the TGI in the experiment with RXF 393 renal, in the experiment on SF-268 CNS, with SK-MEL-5 melanoma and in the experiment with SR leukemia was above 25 µM throughout.

For the compound `c1csc(-c2[nH]nc3c2CCc2ccccc2-3)c1`, the GI50 in the experiment with CCRF-CEM leukemia was 21.7 µM; in the experiment on HOP-92 NSCLC, 1.88 µM; in the experiment with NCI-H460 lung, 9.12 µM; in the experiment on NCI/ADR-RES ovarian it was 17.7 µM; with OVCAR-8 ovarian it was 18.7 µM; in the experiment with PC-3 prostate it was 12.5 µM. In addition, the GI50 was 16.9 µM in the experiment with RXF 393 renal, 16.7 µM in the experiment on SF-268 CNS, 13 µM in the experiment on SK-MEL-5 melanoma and 21.9 µM with SR leukemia. Further, the TGI in the experiment on CCRF-CEM leukemia was found to be 73.3 µM; in the experiment with HOP-92 NSCLC it was 20.4 µM; in the experiment on NCI-H460 lung it was 34.3 µM; in the experiment with NCI/ADR-RES ovarian it was 49.3 µM; with OVCAR-8 ovarian it was 56.8 µM; in the experiment with PC-3 prostate it was 37.5 µM. The TGI in the experiment on RXF 393 renal is 37.4 µM; in the experiment on SF-268 CNS, 55 µM; with SK-MEL-5 melanoma it was 26 µM; with SR leukemia, 66.3 µM.

As for `CCNc1nc(-c2ccc(Cl)c(OC)c2)c(-c2ccnc(NCCNS(=O)(=O)c3ccc(Cl)cc3)n2)s1`, the GI50 in the experiment with CCRF-CEM leukemia is 2.83 µM; in the experiment on HOP-92 NSCLC it was 2.64 µM; with NCI-H460 lung, 3.2 µM; with NCI/ADR-RES ovarian, 3.51 µM; in the experiment on OVCAR-8 ovarian it was 3.88 µM; in the experiment with PC-3 prostate it was 2.99 µM. In addition, the GI50 with RXF 393 renal is 2 µM; in the experiment with SF-268 CNS, 4.03 µM; in the experiment with SK-MEL-5 melanoma, 1.56 µM; with SR leukemia it was 2.7 µM. Also, the TGI is above 100 µM in the experiment on CCRF-CEM leukemia; 9.58 µM in the experiment with HOP-92 NSCLC; above 100 µM in the experiment on NCI-H460 lung; above 100 µM with NCI/ADR-RES ovarian; above 100 µM in the experiment on OVCAR-8 ovarian; above 100 µM in the experiment on PC-3 prostate. Moreover, the TGI in the experiment on RXF 393 renal was 5.1 µM; with SF-268 CNS it was above 100 µM; in the experiment with SK-MEL-5 melanoma it was 3.23 µM; in the experiment with SR leukemia, 7.51 µM.

As for `Oc1ccc(CCNc2nc3ccccc3c3[nH]c4ccccc4c23)cc1`, the GI50 is 1.3 µM in the experiment with HOP-92 NSCLC; 2.68 µM with NCI/ADR-RES ovarian; 1.02 µM with OVCAR-8 ovarian; 1.63 µM with PC-3 prostate; 1.25 µM in the experiment on RXF 393 renal; 1.71 µM in the experiment on SF-268 CNS. Moreover, the GI50 is 1.75 µM with SK-MEL-5 melanoma and 1.48 µM in the experiment with SR leukemia. Besides, the TGI worked out at 2.82 µM in the experiment on HOP-92 NSCLC; 9.28 µM in the experiment on NCI/ADR-RES ovarian; 2.29 µM with OVCAR-8 ovarian; 3.31 µM in the experiment on PC-3 prostate; 2.66 µM in the experiment with RXF 393 renal; 5.01 µM with SF-268 CNS. In addition, the TGI was 3.15 µM in the experiment with SK-MEL-5 melanoma and above 100 µM in the experiment on SR leukemia.

Consider `N#Cc1c(N/N=C/c2c(Cl)cccc2Cl)nc(N)nc1N1CCCC1`, for which the GI50 in the experiment with CCRF-CEM leukemia is 3.52 µM; in the experiment with HOP-92 NSCLC it was 9.41 µM; in the experiment with NCI/ADR-RES ovarian, 1.5 µM; with OVCAR-8 ovarian, 3.53 µM; in the experiment with PC-3 prostate it was 2.89 µM; in the experiment with RXF 393 renal it was 2.34 µM. Also, the GI50 was above 100 µM with SF-268 CNS, 0.722 µM in the experiment with SK-MEL-5 melanoma and 0.795 µM in the experiment on SR leukemia. Further, the TGI in the experiment on CCRF-CEM leukemia was 16.1 µM; in the experiment with HOP-92 NSCLC, above 100 µM; with NCI/ADR-RES ovarian, 6.98 µM; with OVCAR-8 ovarian it was 40.5 µM; with PC-3 prostate, 40 µM; in the experiment on RXF 393 renal, above 100 µM. Also, the TGI in the experiment on SF-268 CNS was above 100 µM; in the experiment with SK-MEL-5 melanoma it was 7.11 µM; in the experiment with SR leukemia, 3.03 µM.
